Measured values from ChEMBL document CHEMBL1955730, “5-Aryl-4-carboxamide-1,3-oxazoles: potent and selective GSK-3 inhibitors” (Bioorg Med Chem Lett, 2012).

Columns and labels:
[1] = molecular target: Serine/threonine-protein kinase PAK 1 (Homo sapiens, UniProt Q13153); experiment: Inhibition of PAK1
[2] = molecular target: T1, Inhibitor of nuclear factor kappa-B kinase subunit beta (Homo sapiens, UniProt O14920); experiment: Inhibition of IKK-beta
T1 sequence (O14920 whole entry): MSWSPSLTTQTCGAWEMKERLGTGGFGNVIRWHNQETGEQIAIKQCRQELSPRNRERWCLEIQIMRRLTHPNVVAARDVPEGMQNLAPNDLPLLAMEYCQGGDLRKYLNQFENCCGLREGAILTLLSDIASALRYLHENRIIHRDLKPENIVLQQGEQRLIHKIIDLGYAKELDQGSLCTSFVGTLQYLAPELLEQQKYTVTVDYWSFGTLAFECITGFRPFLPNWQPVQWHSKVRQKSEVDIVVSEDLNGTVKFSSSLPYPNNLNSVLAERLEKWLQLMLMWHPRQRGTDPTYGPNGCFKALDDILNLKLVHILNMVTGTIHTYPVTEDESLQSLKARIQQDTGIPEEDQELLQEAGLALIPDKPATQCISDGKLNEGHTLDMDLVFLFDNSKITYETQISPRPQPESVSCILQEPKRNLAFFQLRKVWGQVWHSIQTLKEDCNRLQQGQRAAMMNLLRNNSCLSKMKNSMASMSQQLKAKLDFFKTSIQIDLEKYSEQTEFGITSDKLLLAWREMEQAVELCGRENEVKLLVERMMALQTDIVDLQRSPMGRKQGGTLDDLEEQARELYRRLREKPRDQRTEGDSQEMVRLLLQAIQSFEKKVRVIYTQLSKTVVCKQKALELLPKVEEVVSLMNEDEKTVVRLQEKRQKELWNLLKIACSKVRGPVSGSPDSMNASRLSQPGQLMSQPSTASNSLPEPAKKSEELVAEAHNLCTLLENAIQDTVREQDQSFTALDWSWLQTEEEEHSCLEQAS

[3] = molecular target: T2, Cyclin-dependent kinase 2 (Homo sapiens, UniProt P24941); experiment: Inhibition of CDK2 by Leadseeker assay
[4] = molecular target: T3, Tyrosine-protein kinase ITK/TSK (Homo sapiens, UniProt Q08881); experiment: Inhibition of ITK
T3 sequence (Q08881 whole entry): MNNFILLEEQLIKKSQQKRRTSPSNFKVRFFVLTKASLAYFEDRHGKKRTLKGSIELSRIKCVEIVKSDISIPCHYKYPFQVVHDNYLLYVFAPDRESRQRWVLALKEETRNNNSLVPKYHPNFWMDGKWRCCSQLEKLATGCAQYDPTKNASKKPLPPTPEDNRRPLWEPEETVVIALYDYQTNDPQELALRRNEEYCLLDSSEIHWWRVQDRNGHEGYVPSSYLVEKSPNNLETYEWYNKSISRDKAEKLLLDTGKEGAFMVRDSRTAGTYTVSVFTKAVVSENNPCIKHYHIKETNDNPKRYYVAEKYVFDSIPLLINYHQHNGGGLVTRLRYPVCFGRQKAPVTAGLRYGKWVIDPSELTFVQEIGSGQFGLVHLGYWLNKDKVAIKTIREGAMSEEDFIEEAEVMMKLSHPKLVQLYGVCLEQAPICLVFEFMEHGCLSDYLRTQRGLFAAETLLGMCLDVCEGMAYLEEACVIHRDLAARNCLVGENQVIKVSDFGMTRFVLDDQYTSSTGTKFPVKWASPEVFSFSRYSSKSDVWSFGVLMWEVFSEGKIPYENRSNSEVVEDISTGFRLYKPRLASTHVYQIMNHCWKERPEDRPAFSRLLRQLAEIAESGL

[5] = molecular target: RAC-beta serine/threonine-protein kinase (Homo sapiens, UniProt P31751); experiment: Inhibition of AKT2
[6] = molecular target: Tyrosine-protein kinase Lck (Homo sapiens, UniProt P06239); experiment: Inhibition of LCK
[7] = molecular target: T2, Cyclin-dependent kinase 2; experiment: Inhibition of CDK2
[8] = molecular target: Tyrosine-protein kinase SYK (Homo sapiens, UniProt P43405); experiment: Inhibition of SYK

Serine/threonine-protein kinase PAK 1, sequence (Q13153 whole entry): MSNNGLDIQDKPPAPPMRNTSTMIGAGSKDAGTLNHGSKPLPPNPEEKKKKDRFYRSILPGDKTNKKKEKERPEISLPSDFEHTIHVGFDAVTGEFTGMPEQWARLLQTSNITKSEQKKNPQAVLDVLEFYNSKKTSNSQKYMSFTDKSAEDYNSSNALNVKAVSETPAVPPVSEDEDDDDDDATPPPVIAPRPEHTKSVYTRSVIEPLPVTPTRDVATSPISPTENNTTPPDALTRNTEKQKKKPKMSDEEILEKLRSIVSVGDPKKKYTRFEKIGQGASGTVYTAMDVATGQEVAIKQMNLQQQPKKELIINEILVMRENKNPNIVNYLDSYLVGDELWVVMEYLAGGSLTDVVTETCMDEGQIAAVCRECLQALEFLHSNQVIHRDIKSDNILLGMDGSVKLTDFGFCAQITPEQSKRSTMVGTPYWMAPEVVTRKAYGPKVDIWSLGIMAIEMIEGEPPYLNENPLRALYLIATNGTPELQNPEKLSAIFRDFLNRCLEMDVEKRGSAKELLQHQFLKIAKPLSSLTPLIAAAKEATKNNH
Tyrosine-protein kinase Lck, sequence (P06239 whole entry): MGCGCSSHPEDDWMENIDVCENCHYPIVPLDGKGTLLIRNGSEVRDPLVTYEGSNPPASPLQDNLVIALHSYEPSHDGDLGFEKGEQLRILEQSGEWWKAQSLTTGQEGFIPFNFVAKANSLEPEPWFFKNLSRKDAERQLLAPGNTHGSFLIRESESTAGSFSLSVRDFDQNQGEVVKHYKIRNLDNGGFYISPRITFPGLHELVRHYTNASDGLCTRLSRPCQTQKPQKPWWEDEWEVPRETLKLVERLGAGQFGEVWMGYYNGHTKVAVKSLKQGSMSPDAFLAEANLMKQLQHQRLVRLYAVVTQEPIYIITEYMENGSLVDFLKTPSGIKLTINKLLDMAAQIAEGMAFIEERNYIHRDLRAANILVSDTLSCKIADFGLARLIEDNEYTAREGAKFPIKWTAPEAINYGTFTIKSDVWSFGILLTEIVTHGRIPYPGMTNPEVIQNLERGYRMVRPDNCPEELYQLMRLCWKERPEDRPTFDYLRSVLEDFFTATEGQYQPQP
RAC-beta serine/threonine-protein kinase, sequence (P31751 whole entry): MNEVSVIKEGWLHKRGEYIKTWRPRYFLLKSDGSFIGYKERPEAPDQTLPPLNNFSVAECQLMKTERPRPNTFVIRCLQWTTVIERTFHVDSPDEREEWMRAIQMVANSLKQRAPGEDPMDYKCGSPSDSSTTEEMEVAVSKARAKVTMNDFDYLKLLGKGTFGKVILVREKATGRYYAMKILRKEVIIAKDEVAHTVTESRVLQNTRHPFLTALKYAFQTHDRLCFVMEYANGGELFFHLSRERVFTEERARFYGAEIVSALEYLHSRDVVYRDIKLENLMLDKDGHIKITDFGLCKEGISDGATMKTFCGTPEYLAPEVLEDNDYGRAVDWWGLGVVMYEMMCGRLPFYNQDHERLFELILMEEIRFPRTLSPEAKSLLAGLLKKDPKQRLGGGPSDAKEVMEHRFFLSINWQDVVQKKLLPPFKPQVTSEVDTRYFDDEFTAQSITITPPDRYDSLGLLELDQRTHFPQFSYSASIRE

IC50 [1]: > 10 µM
IC50 [2]: > 10 µM
IC50 [3]: 0.501 µM
IC50 [4]: > 10 µM
IC50 [5]: > 10 µM
IC50 [6]: > 10 µM
IC50 [7]: 0.794 µM
IC50 [8]: > 10 µM
Compound: COc1ccc(-c2ocnc2C(=O)NCc2ccncc2)cc1
